Laboratory results reported in patent publication US20250319095A1, “USE OF BENZO[…] INCREASE SENSITIVITY TO […] A CHRONIC SSRI REGIMEN” (Compass Pathfinder Limited, priority 2020, published 2025).
In brackets after ≈: the same amount, converted by molar mass.

What was measured:
[1] = tested on: Mouse; assay: Ethovision activity to psilocybin after acute diazepam pretreatment; format: in vivo
Protocol: (§1) Animals were dosed as detailed by Table 10 below and were placed in a clean cage. The number of head twitches and wet dog shakes were then counted by a scorer for 30 minutes after dosing. The timings of head twitches and wet dog shakes were recorded by a computer program. The experiment was carried out over three days. Scorers were blinded to treatment group.
Ethovision data was organized into 5-minute and 15-minute time periods and 0-30 minutes for each animal. Ethovision scores were log transformed, however Shapiro-Wilk tests were significant for many of the 5-minute and 15-minute time windows. Therefore, robust regression was used to analyze the Ethovision data.
(§2) Number of head twitches over each 5-minute period and each 15-minute period and the total for 0-30 minutes were square-root transformed and analyzed by three way ANOVA with treatment, day, and scorer as factors. Ethovision data was analyzed by robust regression using M estimation, Huber weighting, using the default parameter C=1.345. The model used treatment, day, and scorer as factors.
(§3) P<0.05 was the level accepted for statistical difference. The chance of a false positive is 5% for each dose for each time. All tests were carried out as two-sided tests.

[2] = tested on: male C57BL/6J mice; assay: Psilocybin head twitch response with chronic diazepam pre-treatment; format: in vivo
Protocol: Sixty-two (60 plus 2 spares;) male C57BL/6J mice (20-25 g upon arrival) were purchased from Charles River UK. Animals were group housed (in 3 s and a pair) in polypropylene cages. Mice were maintained on a normal phase 12 h light-dark cycle (lights on: 07:00-19:00 h) with free access to standard rodent maintenance diet (standard pelleted diet Envigo 2018) and filtered tap water. The holding room was maintained at a temperature of 21±4° C. and relative humidity was 55±15% with prolonged periods below 40% RH or above 70% RH avoided as detailed in the UK Code of Practice. As a refinement, each cage contained sawdust, sizzle nest, a red house, Perspex tunnel, plastic chew stick and a nestlet so that the mice can make nests and facilitate warmth. Mice were weighed upon arrival and provided with wet mash overnight. The following morning, mice were weighed, and the mash removed.
Mice were weighed and allocated into 6 treatment groups by a statistician (as per Table 20 below). […] For groups A-D animals were placed individually in clean cages with a light dusting of sawdust immediately following psilocybin administration (0.3 mg/kg, s.c) for head twitch response assessment. Head twitches were counted by a trained observer over a 30 minute period.
Statistical significance was tested using two-way analysis of variance with treatment and observer as cofactors (Table 21 below).

[3] = tested on: Mouse; assay: Head twitch response to psilocybin after acute diazepam pretreatment; format: in vivo
Protocol: as §1, §2, §3

[4] = Solubility of psilocybin in water
[5] = 0 to 5 mins, Psilocybin 0.3 mg/kg sc 1 hr post Diazepam 4 mg/kg ip or Saline ip
[6] = 0 to 5 mins, Psilocybin 1 mg/kg sc 1 hr post Diazepam 4 mg/kg ip or Saline ip
[7] = 0 to 5 mins, Psilocybin 3 mg/kg sc 1 hr post Diazepam 4 mg/kg ip or Saline ip
[8] = 0 to 15 mins, Psilocybin 0.3 mg/kg sc 1 hr post Diazepam 4 mg/kg ip or Saline ip
[9] = 0 to 15 mins, Psilocybin 1 mg/kg sc 1 hr post Diazepam 4 mg/kg ip or Saline ip
[10] = 0 to 15 mins, Psilocybin 3 mg/kg sc 1 hr post Diazepam 4 mg/kg ip or Saline ip
[11] = 0 to 30 mins (total), Psilocybin 0.3 mg/kg sc 1 hr post Diazepam 4 mg/kg ip or Saline ip
[12] = 0 to 30 mins (total), Psilocybin 1 mg/kg sc 1 hr post Diazepam 4 mg/kg ip or Saline ip
[13] = 0 to 30 mins (total), Psilocybin 3 mg/kg sc 1 hr post Diazepam 4 mg/kg ip or Saline ip
[14] = 5 to 10 mins, Psilocybin 0.3 mg/kg sc 1 hr post Diazepam 4 mg/kg ip or Saline ip
[15] = 5 to 10 mins, Psilocybin 1 mg/kg sc 1 hr post Diazepam 4 mg/kg ip or Saline ip
[16] = 5 to 10 mins, Psilocybin 3 mg/kg sc 1 hr post Diazepam 4 mg/kg ip or Saline ip
[17] = 10 to 15 mins, Psilocybin 0.3 mg/kg sc 1 hr post Diazepam 4 mg/kg ip or Saline ip
[18] = 10 to 15 mins, Psilocybin 1 mg/kg sc 1 hr post Diazepam 4 mg/kg ip or Saline ip
[19] = 10 to 15 mins, Psilocybin 3 mg/kg sc 1 hr post Diazepam 4 mg/kg ip or Saline ip
[20] = 15 to 20 mins, Psilocybin 0.3 mg/kg sc 1 hr post Diazepam 4 mg/kg ip or Saline ip
[21] = 15 to 20 mins, Psilocybin 1 mg/kg sc 1 hr post Diazepam 4 mg/kg ip or Saline ip
[22] = 15 to 20 mins, Psilocybin 3 mg/kg sc 1 hr post Diazepam 4 mg/kg ip or Saline ip
[23] = 15 to 30 mins, Psilocybin 0.3 mg/kg sc 1 hr post Diazepam 4 mg/kg ip or Saline ip
[24] = 15 to 30 mins, Psilocybin 1 mg/kg sc 1 hr post Diazepam 4 mg/kg ip or Saline ip
[25] = 15 to 30 mins, Psilocybin 3 mg/kg sc 1 hr post Diazepam 4 mg/kg ip or Saline ip
[26] = 20 to 25 mins, Psilocybin 0.3 mg/kg sc 1 hr post Diazepam 4 mg/kg ip or Saline ip
[27] = 20 to 25 mins, Psilocybin 1 mg/kg sc 1 hr post Diazepam 4 mg/kg ip or Saline ip
[28] = 20 to 25 mins, Psilocybin 3 mg/kg sc 1 hr post Diazepam 4 mg/kg ip or Saline ip
[29] = 25 to 30 mins, Psilocybin 0.3 mg/kg sc 1 hr post Diazepam 4 mg/kg ip or Saline ip
[30] = 25 to 30 mins, Psilocybin 1 mg/kg sc 1 hr post Diazepam 4 mg/kg ip or Saline ip
[31] = 25 to 30 mins, Psilocybin 3 mg/kg sc 1 hr post Diazepam 4 mg/kg ip or Saline ip

Compound: CN(C)CCc1c[nH]c2cccc(OP(=O)(O)O)c12 [Psilocybin, psilocybin]
- Ethovision data Mean [1, 5]: 801.48
- Ethovision data Mean [1, 6]: 826.56
- Ethovision data Mean [1, 7]: 785.38
- Ethovision data Mean [1, 8]: 2149.79
- Ethovision data Mean [1, 9]: 2025.10
- Ethovision data Mean [1, 10]: 1667.64
- Ethovision data Mean [1, 11]: 3782.48
- Ethovision data Mean [1, 12]: 3368.87
- Ethovision data Mean [1, 13]: 2403.79
- Ethovision data Mean [1, 14]: 704.55
- Ethovision data Mean [1, 15]: 665.97
- Ethovision data Mean [1, 16]: 516.00
- Ethovision data Mean [1, 17]: 641.76
- Ethovision data Mean [1, 18]: 519.27
- Ethovision data Mean [1, 19]: 353.03
- Ethovision data Mean [1, 20]: 517.51
- Ethovision data Mean [1, 21]: 430.23
- Ethovision data Mean [1, 22]: 271.26
- Ethovision data Mean [1, 23]: 1630.42
- Ethovision data Mean [1, 24]: 1337.33
- Ethovision data Mean [1, 25]: 719.96
- Ethovision data Mean [1, 26]: 519.96
- Ethovision data Mean [1, 27]: 444.11
- Ethovision data Mean [1, 28]: 208.90
- Ethovision data Mean [1, 29]: 551.06
- Ethovision data Mean [1, 30]: 430.12
- Ethovision data Mean [1, 31]: 213.04
- Mean head twitch responses ([2]; 0-5 mins, Psilocybin 0.3 mg/kg sc 2 hr post Diazepam 1.25 mg/kg ip bid 14 days or Saline ip bid): 0.76
- Mean head twitch responses ([2]; 0-5 mins, Psilocybin 0.3 mg/kg sc 24 hr post Diazepam 1.25 mg/kg ip bid 14 days or Saline ip bid): 1.81
- Mean head twitch responses ([2]; 0-15 mins, Psilocybin 0.3 mg/kg sc 2 hr post Diazepam 1.25 mg/kg ip bid 14 days or Saline ip bid): 2.93
- Mean head twitch responses ([2]; 0-15 mins, Psilocybin 0.3 mg/kg sc 24 hr post Diazepam 1.25 mg/kg ip bid 14 days or Saline ip bid): 5.65
- Mean head twitch responses ([2]; 0-30 mins, Psilocybin 0.3 mg/kg sc 2 hr post Diazepam 1.25 mg/kg ip bid 14 days or Saline ip bid): 5.78
- Mean head twitch responses ([2]; 0-30 mins, Psilocybin 0.3 mg/kg sc 24 hr post Diazepam 1.25 mg/kg ip bid 14 days or Saline ip bid): 9.70
- Mean head twitch responses ([2]; 5-10 mins, Psilocybin 0.3 mg/kg sc 2 hr post Diazepam 1.25 mg/kg ip bid 14 days or Saline ip bid): 0.81
- Mean head twitch responses ([2]; 5-10 mins, Psilocybin 0.3 mg/kg sc 24 hr post Diazepam 1.25 mg/kg ip bid 14 days or Saline ip bid): 2.25
- Mean head twitch responses ([2]; 10-15 mins, Psilocybin 0.3 mg/kg sc 2 hr post Diazepam 1.25 mg/kg ip bid 14 days or Saline ip bid): 0.81
- Mean head twitch responses ([2]; 10-15 mins, Psilocybin 0.3 mg/kg sc 24 hr post Diazepam 1.25 mg/kg ip bid 14 days or Saline ip bid): 1.04
- Mean head twitch responses ([2]; 15-20 mins, Psilocybin 0.3 mg/kg sc 2 hr post Diazepam 1.25 mg/kg ip bid 14 days or Saline ip bid): 0.60
- Mean head twitch responses ([2]; 15-20 mins, Psilocybin 0.3 mg/kg sc 24 hr post Diazepam 1.25 mg/kg ip bid 14 days or Saline ip bid): 1.70
- Mean head twitch responses ([2]; 15-30 mins, Psilocybin 0.3 mg/kg sc 2 hr post Diazepam 1.25 mg/kg ip bid 14 days or Saline ip bid): 2.35
- Mean head twitch responses ([2]; 15-30 mins, Psilocybin 0.3 mg/kg sc 24 hr post Diazepam 1.25 mg/kg ip bid 14 days or Saline ip bid): 3.60
- Mean head twitch responses ([2]; 20-25 mins, Psilocybin 0.3 mg/kg sc 2 hr post Diazepam 1.25 mg/kg ip bid 14 days or Saline ip bid): 0.32
- Mean head twitch responses ([2]; 20-25 mins, Psilocybin 0.3 mg/kg sc 24 hr post Diazepam 1.25 mg/kg ip bid 14 days or Saline ip bid): 0.43
- Mean head twitch responses ([2]; 25-30 mins, Psilocybin 0.3 mg/kg sc 2 hr post Diazepam 1.25 mg/kg ip bid 14 days or Saline ip bid): 0.80
- Mean head twitch responses ([2]; 25-30 mins, Psilocybin 0.3 mg/kg sc 24 hr post Diazepam 1.25 mg/kg ip bid 14 days or Saline ip bid): 1.16
- Head twitches Mean [3, 5]: 1.84
- Head twitches Mean [3, 6]: 2.42
- Head twitches Mean [3, 7]: 5.34
- Head twitches Mean [3, 8]: 5.57
- Head twitches Mean [3, 9]: 6.32
- Head twitches Mean [3, 10]: 12.4
- Head twitches Mean [3, 11]: 8.38
- Head twitches Mean [3, 12]: 8.98
- Head twitches Mean [3, 13]: 15.66
- Head twitches Mean [3, 14]: 1.64
- Head twitches Mean [3, 15]: 1.39
- Head twitches Mean [3, 16]: 4.67
- Head twitches Mean [3, 17]: 1.36
- Head twitches Mean [3, 18]: 1.44
- Head twitches Mean [3, 19]: 2.07
- Head twitches Mean [3, 20]: 0.93
- Head twitches Mean [3, 21]: 1.35
- Head twitches Mean [3, 22]: 1.07
- Head twitches Mean [3, 23]: 2.57
- Head twitches Mean [3, 24]: 2.39
- Head twitches Mean [3, 25]: 2.5
- Head twitches Mean [3, 26]: 0.39
- Head twitches Mean [3, 27]: 0.43
- Head twitches Mean [3, 28]: 0.66
- Head twitches Mean [3, 29]: 0.59
- Head twitches Mean [3, 30]: 0.15
- Head twitches Mean [3, 31]: 0.34
- solubility [4]: ~15 mg/mL (≈ 52.8 mM)
